Test results taken from patent US7691601B2, “Medium for detecting and/or identifying of microorganisms” (priority 2003, dated 2010).

Experiments:
Salmonella Paratyphi A = test: Coloration of Salmonella Paratyphi A colonies on detection medium; assay type: cell-based; set-up: key: 0=no coloration; 0.5=trace of coloration; 1=weak coloration; 2=strong coloration
Experimental: (§1) Preparation of the detection medium: A volume of 250 ml of detection medium is prepared from a powdered medium having the following composition:
(§2) Melting is carried out at 100° C., and the medium is autoclaved at 121° C. for 15 minutes. The additives are then added to the medium: Magenta C8 (500 mg/l; B-7102, BIOSYNTH, Staad, Switzerland); X-glucoside (75 mg/l; B-7250, BIOSYNTH, Staad, Switzerland); cefsulodine (10 mg/l; C 4786, Sigma, St Quentin Fallavier, France) and various concentrations of the inhibitor O,O-diethyl p-nitrophenyl phosphate (Paraoxon® ethyl; CAS No. 311-45-5; 36186, Riedel-de Haën, St Quentin Fallavier, France; 0; 1; 5 or 10 mg/l).
(§3) The various detection media thus obtained are then poured into Petri dishes.
(§4) Seeding of Salmonella bacteria: 10 μl of stools are deposited onto a Petri dish, this stool suspension is mixed or not mixed with 10 μl of a suspension of Salmonella (0.5 McF) and isolated as 3 dials on a Petri dish. Various […] and various Salmonella strains originating from the applicant's collection are used according to this protocol. The Petri dishes are incubated at 37° C. for 24 hours. The appearance of a coloration at the point of deposit of the stool (“deposit” column) and at the Salmonella colony (“colony” column) is read according to a semi-quantitative scale: • 0=no coloration • 0.5=trace of coloration • 1=weak coloration • 2=strong coloration The results obtained are given in Table 1.
(§5) Preparation of the detection medium: 250 ml of the medium of Example 1, in which the O,O-diethyl p-nitrophenyl phosphate is replaced with various concentrations of O,O-di-(2-chloroethyl)-O-(3-chloro-4-methylcoumarin-7-yl)phosphate (Haloxon®; CAS No. 321-55-1; R276995, Sigma, St Quentin Fallavier, France; 0; 1; 10; 100 or 1000 mg/l), are prepared according to the method of Example 1.
(§6) The various selection media thus obtained are then poured into Petri dishes.
(§7) Seeding of Salmonella bacteria: The Petri dishes are inoculated, incubated and read as in Example 1.

Candida dubliniensis [1] = test: Coloration of Candida dubliniensis colonies on detection medium; assay type: cell-based; set-up: key: 0=absence of coloration; 0.5=trace coloration; 1=weak coloration; 2=strong coloration; settings: Table 4, 5 mg/l
Experimental: as §1
(§8) Melting is carried out at 100° C., and the medium is autoclaved at 121° C. for 15 minutes. The additives are then added to the medium: Magenta C8 (500 mg/l; B-7102, BIOSYNTH, Staad, Switzerland); X-glucoside (75 mg/l; B-7250, BIOSYNTH, Staad, Switzerland); cefsulodine (10 mg/l; C 4786, Sigma, St Quentin Fallavier, France), and also the esterase inhibitor: • ? O,O-diethyl p-nitrophenyl phosphate: 5 mg/l • ? O,O-dimethyl p-nitrophenyl phosphate: 25 mg/l or • ? O,O-di-(2-chloroethyl)-O-(3-chloro-4-methylcoumarin-7-yl)phosphate: 75 mg/l
as §6
(§9) Seeding of yeast of the Candida genus: 10 μl of stools are deposited onto a Petri dish, and this stool suspension is mixed or not mixed with 10 μl of a suspension of Candida and isolated as 3 dials on a Petri dish. Various stools and various strains of Candida genus originating from the applicant's collection are used according to this protocol. The Petri dishes are incubated at 37° C. for 24 hours.
(§10) The appearance of a coloration at the point of deposit of the stool and in the Candida colonies is read according to a semi-quantitative scale: • 0=absence of coloration • 0.5=trace coloration • 1=weak coloration • 2=strong coloration.

free esterases in stools = test: Coloration at the point of deposit of the stool on Candida detection medium; assay type: biochemical; settings: summary in words
Experimental: as §1, §8, §6, §9, §10

[2] = tested on: free esterases in a stool sample; test: Coloration at the point of deposit of the stool on Salmonella detection medium (Magenta C8); assay type: biochemical; set-up: key to Deposit coloration: 0=no coloration; 0.5=trace of coloration; 1=weak coloration; 2=strong coloration; settings: for Aspecific enzymatic reactions due to the presence of free enzymes: stools, Salmonella detection medium, summary in words
Experimental: as §1, §2, §3, §4
as §2, with “O,O-dimethyl” for “O,O-diethyl”, “methyl;” for “ethyl;”, “950-35-6;” for “311-45-5; 36186,”, “5, 10, 25” for “0; 1; 5 or 10”
as §7, §5, §6

Candida dubliniensis [3] = test: Coloration of Candida dubliniensis colonies on detection medium; assay type: cell-based; set-up: key: 0=no coloration; 0.5=trace of coloration; 1=weak coloration; 2=strong coloration; settings: Table 4, 25 mg/l
Experimental: as §1, §8, §6, §9, §10

CCOP(=O)(OCC)Oc1ccc([N+](=O)[O-])cc1 [O,O-diethyl p-nitrophenyl phosphate]
Colonies coloration (Salmonella Paratyphi A; Table 1, 1 mg/l, stool A): 1 | Colonies coloration (Salmonella Paratyphi A; Table 1, 1 mg/l, stool B): 1 | Colonies coloration (Salmonella Paratyphi A; Table 1, 5 mg/l, stool A): 1 | Colonies coloration (Salmonella Paratyphi A; Table 1, 5 mg/l, stool B): 1 | Colonies coloration (Salmonella Paratyphi A; Table 1, 10 mg/l, stool A): 1 | Colonies coloration (Salmonella Paratyphi A; Table 1, 10 mg/l, stool B): 1 | Colonies coloration (Candida dubliniensis [1]; stool A): 0.5 | Colonies coloration (Candida dubliniensis [1]; stool B): 0.5 | Aspecific enzymatic reactions due to the presence of free enzymes (free esterases in stools): greatly inhibited | Deposit coloration ([2]; Table 1, 1 mg/l, stool A, Salmonella Enteritidis): 0.5 | Deposit coloration ([2]; Table 1, 1 mg/l, stool A, Salmonella Paratyphi A): 0.5 | Deposit coloration ([2]; Table 1, 1 mg/l, stool A, Salmonella Typhi): 0.5 | Deposit coloration ([2]; Table 1, 1 mg/l, stool A, no strain): 0.5 | Deposit coloration ([2]; Table 1, 1 mg/l, stool B, Salmonella Enteritidis): 0 | Deposit coloration ([2]; Table 1, 1 mg/l, stool B, Salmonella Paratyphi A): 0 | Deposit coloration ([2]; Table 1, 1 mg/l, stool B, Salmonella Typhi): 0 | Deposit coloration ([2]; Table 1, 1 mg/l, stool B, no strain): 0 | Deposit coloration ([2]; Table 1, 5 mg/l, stool A, Salmonella Enteritidis): 0 | Deposit coloration ([2]; Table 1, 5 mg/l, stool A, Salmonella Paratyphi A): 0 | Deposit coloration ([2]; Table 1, 5 mg/l, stool A, Salmonella Typhi): 0 | Deposit coloration ([2]; Table 1, 5 mg/l, stool A, no strain): 0 | Deposit coloration ([2]; Table 1, 5 mg/l, stool B, Salmonella Enteritidis): 0 | Deposit coloration ([2]; Table 1, 5 mg/l, stool B, Salmonella Paratyphi A): 0 | Deposit coloration ([2]; Table 1, 5 mg/l, stool B, Salmonella Typhi): 0 | Deposit coloration ([2]; Table 1, 5 mg/l, stool B, no strain): 0 | Deposit coloration ([2]; Table 1, 10 mg/l, stool A, Salmonella Enteritidis): 0 | Deposit coloration ([2]; Table 1, 10 mg/l, stool A, Salmonella Paratyphi A): 0 | Deposit coloration ([2]; Table 1, 10 mg/l, stool A, Salmonella Typhi): 0 | Deposit coloration ([2]; Table 1, 10 mg/l, stool A, no strain): 0 | Deposit coloration ([2]; Table 1, 10 mg/l, stool B, Salmonella Enteritidis): 0 | Deposit coloration ([2]; Table 1, 10 mg/l, stool B, Salmonella Paratyphi A): 0 | Deposit coloration ([2]; Table 1, 10 mg/l, stool B, Salmonella Typhi): 0 | Deposit coloration ([2]; Table 1, 10 mg/l, stool B, no strain): 0 | Aspecific enzymatic reactions due to the presence of free enzymes [2]: greatly inhibited

COP(=O)(OC)Oc1ccc([N+](=O)[O-])cc1 [O,O-dimethyl p-nitrophenyl phosphate]
Colonies coloration (Candida dubliniensis [3]; stool A): 1 | Colonies coloration (Candida dubliniensis [3]; stool B): 1 | Aspecific enzymatic reactions due to the presence of free enzymes (free esterases in stools): greatly inhibited | Deposit coloration ([2]; Table 2, 5 mg/l, stool C, Salmonella Enteritidis): 1 | Deposit coloration ([2]; Table 2, 5 mg/l, stool C, Salmonella Typhi): 1 | Deposit coloration ([2]; Table 2, 5 mg/l, stool C, no strain): 1 | Deposit coloration ([2]; Table 2, 5 mg/l, stool D, Salmonella Enteritidis): 1 | Deposit coloration ([2]; Table 2, 5 mg/l, stool D, Salmonella Typhi): 1 | Deposit coloration ([2]; Table 2, 5 mg/l, stool D, no strain): 1 | Deposit coloration ([2]; Table 2, 10 mg/l, stool C, Salmonella Enteritidis): 0.5 | Deposit coloration ([2]; Table 2, 10 mg/l, stool C, Salmonella Typhi): 0.5 | Deposit coloration ([2]; Table 2, 10 mg/l, stool C, no strain): 0.5 | Deposit coloration ([2]; Table 2, 10 mg/l, stool D, Salmonella Enteritidis): 1 | Deposit coloration ([2]; Table 2, 10 mg/l, stool D, Salmonella Typhi): 1 | Deposit coloration ([2]; Table 2, 10 mg/l, stool D, no strain): 1 | Deposit coloration ([2]; Table 2, 25 mg/l, stool C, Salmonella Enteritidis): 0 | Deposit coloration ([2]; Table 2, 25 mg/l, stool C, Salmonella Typhi): 0 | Deposit coloration ([2]; Table 2, 25 mg/l, stool C, no strain): 0 | Deposit coloration ([2]; Table 2, 25 mg/l, stool D, Salmonella Enteritidis): 0 | Deposit coloration ([2]; Table 2, 25 mg/l, stool D, Salmonella Typhi): 0 | Deposit coloration ([2]; Table 2, 25 mg/l, stool D, no strain): 0 | Aspecific enzymatic reactions due to the presence of free enzymes [2]: greatly inhibited
